From patent US8088805B2, “Inhibitors of histone deacetylase” (MethylGene Inc., priority 2004, dated 2012)

Experiments:
[1] = test system: HCT116 human colorectal carcinoma cells; test: Human tumor xenograft in vivo, HCT116; details: Mus musculus, HCT-116; 30 mg/kg ip, mice; read-out: % Inhibition (relative to vehicle control) HCT116
Experimental: (§1) Eight to ten week old female BCD1 mice (Taconic Labs, Great Barrington, N.Y.) were injected subcutaneously in the flank area with 2×10^6 preconditioned HCT116 human colorectal carcinoma cells, SW48 colon cancer cells, and A549 lung cancer cells. Preconditioning of these cells was done by a minimum of three consecutive tumor transplantations in the same strain of nude mice. Subsequently, tumor fragments of approximately 30 mgs were excised and implanted subcutaneously in mice, in the left flank area, under Forene anesthesia (Abbott Labs, Geneva, Switzerland). When the tumors reached a mean volume of 100 mm^3, the mice were treated intraperitoneally by daily injection, with a solution of the histone deacetylase inhibitor in DMSO, at a starting dose of 10 mg/kg. The optimal dose of the HDAC inhibitor was established by dose response experiments according to standard protocols. Tumor volume was calculated every second day post infusion according to standard methods (e.g., Meyer et al., Int. J. Cancer 43: 851-856 (1989)).

SW48 colon cancer cells = test: Human tumor xenograft in vivo, SW48; details: Mus musculus, 30 mg/kg ip, mice, read-out: % Inhibition (relative to vehicle control) SW48
Experimental: as §1

A549 lung cancer cells = test: Human tumor xenograft in vivo, A549; details: 30 mg/kg ip, mice
Experimental: as §1

Human HDAC-1 = Human HDAC-1 (Homo sapiens, UniProt Q13547); test: HDAC-1 enzymatic inhibition, Assay 2 (Boc-Lys(Ac)-AMC, Fluor-de-Lys); type: biochemical; details: Assay 2: Boc-Lys(Ac)-AMC substrate, fluorescence; read-out: HDAC1 IC50
Chain of Human HDAC-1 (Q13547 whole entry): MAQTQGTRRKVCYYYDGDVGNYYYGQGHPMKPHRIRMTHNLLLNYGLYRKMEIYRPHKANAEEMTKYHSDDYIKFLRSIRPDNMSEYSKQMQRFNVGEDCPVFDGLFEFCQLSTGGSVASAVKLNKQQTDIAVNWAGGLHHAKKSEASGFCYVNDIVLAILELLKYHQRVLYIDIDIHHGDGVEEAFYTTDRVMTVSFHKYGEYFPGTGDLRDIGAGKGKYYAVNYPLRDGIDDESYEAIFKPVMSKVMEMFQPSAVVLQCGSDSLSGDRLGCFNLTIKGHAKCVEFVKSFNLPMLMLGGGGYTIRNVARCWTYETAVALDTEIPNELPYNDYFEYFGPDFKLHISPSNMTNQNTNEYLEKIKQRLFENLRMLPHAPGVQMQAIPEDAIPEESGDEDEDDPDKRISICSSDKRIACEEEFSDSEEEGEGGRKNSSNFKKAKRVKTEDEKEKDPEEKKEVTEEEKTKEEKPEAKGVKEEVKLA
Experimental: Assay 2. The following protocol was also used to assay the compounds of the invention. In the assay, the buffer used was 25 mM HEPES, pH 8.0, 137 mM NaCl, 2.7 mM KCl, 1 mM MgCl2 and the substrate was Boc-Lys(Ac)-AMC in a 50 mM stock solution in DMSO. The enzyme stock solution was 4.08 μg/mL in buffer. The compounds were pre-incubated (2 μl in DMSO diluted to 13 μl in buffer for transfer to assay plate) with enzyme (20 μl of 4.08 μg/ml) for 10 minutes at room temperature (35 μl pre-incubation volume). The mixture was pre-incubated for 5 minutes at room temperature. The reaction was started by bringing the temperature to 37° C. and adding […] substrate. Total reaction volume was 50 μl. The reaction was stopped after 20 minutes by addition of 50 μl developer, prepared as directed by Biomol (Fluor-de-Lys developer, Cat. # KI-105). A plate was incubated in the dark for 10 minutes at room temperature before reading (λEx=360 nm, λEm=470 nm, Cutoff filter at 435 nm).
Assay 1 was used to measure HDAC activity of compounds 10c, 13e, 16d, 26b, 44, 47, 61a, 61b, 63, 134, 138, and 308. Assay 2 was used to measure HDAC activity of compounds 361, 366, 367, 368, 369, 370, 371, 372, 373, 374, 375, 376, 377, and 378. In Table 14, “a” indicates activity of ≦0.1 μM, “b” indicates activity of ≦1 μM, “c” indicates activity of ≦5 μM, and “d” indicates activity of >5 μm. For the H4-Ac T24 EC vs. MS-275 assay in Table 14, “u” indicates less than 1, “v” indicates 1, and “w” indicates greater than 1. For the H3 Ac t24 assay in Table 14, “x” indicates activity of ≦1 μM, “y” indicates activity of ≦10 μM, and “z” indicates activity of ≦20 μM.

HCT116 cells = test: MTT assay; type: cell-based; details: Homo sapiens, HCT-116, 72 hours
Experimental: HCT116 cells (2000/well) were plated into 96-well tissue culture plates one day before compound treatment. Compounds at various concentrations were added to the cells. The cells were incubated for 72 hours at 37° C. in 5% CO2 incubator. MTT (3-[4,5-dimethylthiazol-2-yl]-2,5diphenyl tetrazolium bromide, Sigma) was added at a final concentration of 0.5 mg/ml and incubated with the cells for 4 hours before one volume of solubilization buffer (50% N,N-dimethylformamide, 20% SDS, pH 4.7) was added onto the cultured cells. After overnight incubation, solubilized dye was quantified by colorimetric reading at 570 nM using a reference at 630 nM using an MR700 plate reader (Dynatech Laboratories Inc.). OD values were converted to cell numbers according to a standard growth curve of the relevant cell line. The concentration which reduces cell numbers to 50% of that of solvent treated cells is determined as MTT IC50. In Table 14, “a” indicates activity of ≦0.1 μM, “b” indicates activity of ≦1 μM, and “c” indicates activity of ≦5 μM.

[2] = test system: Histone H3 acetylation in T24 human bladder cancer cells; test: Histone H3 acetylation assay; type: cell-based; details: T-24, 16 h, concentration giving 50% of Emax of MS-275, read-out: H3 Ac t24
Experimental: T24 human bladder cancer cells growing in culture are incubated with HDAC inhibitors for 16 h. Cell viability is determined by adding 10 μl Alamar Blue (BioSource, DAL1100). Cells are washed once with PBS and fixed with methanol precooled to −20° C. for 10 min. The cells are then washed twice in PBS. The fixed cells are blocked with 50 μl of PBS+0.1% Triton X-100. Cells are probed with rabbit-anti-acetyl-H3 (Upstate #06-599) as the primary antibody and then with goat-anti-rabbit-HRP (Sigma #A-0545) as the secondary antibody. Fluorescence is read by fluorometer at Ex:550, Em:610, Cutoff:590 (Auto PMT, 15 reads/well) after addition of Amplex-Red. Fluorescence signal is normalized against cell viability derived from Alamar Blue. Maximum acetylation signal of MS-275 (fluorescence unit) is measured as Emax. The concentration of compound which gives 50% of Emax is EC50. In Table 14, “x” indicates activity of ≦1 μM, “y” indicates activity of ≦10 μM, and “z” indicates activity of ≦20 μM.

| IC50 (Human HDAC-1) | IC50 (HCT116 cells) | EC50 [2] | Compound | inhibition in vivo at 30 mg/kg [1] | inhibition in vivo at 30 mg/kg (SW48 colon cancer cells) | % Inhibition (relative to vehicle control) A549 (A549 lung cancer cells) |
| --- | --- | --- | --- | --- | --- | --- |
| – | – | – | Nc1ccccc1NC(=O)c1ccc(CNc2nccc(-c3nccs3)n2)cc1 [26c, N-(2-Amino-phenyl)-4-[(4-thiazol-2-yl-pyrimidin-2-ylamino)-methyl]-benzamide] | 88% | 89.5% | – |
| – | – | – | CN(C)C(=O)c1ccc(-c2ccnc(NCc3ccc(C(=O)Nc4ccccc4N)cc3)n2)cn1 [29a, 5-{2-[4-(2-Amino-phenylcarbamoyl)-benzylamino]-pyrimidin-4-yl}-pyridine-2-carboxylic acid dimethylamide] | – | 70.2% | 31.8% |
| – | – | – | Nc1ccccc1NC(=O)c1ccc(CNc2nccc(-c3ccncc3)n2)cc1 [31b, N-(2-Amino-phenyl)-4-[(4-pyridin-4-yl-pyrimidin-2-ylamino)-methyl]-benzamide] | 39.4% | 47.8% | – |
| – | – | – | Nc1ccccc1NC(=O)c1ccc(CNc2nccc(-c3ccc(N4CCOCC4)nc3)n2)cc1 [34a, N-(2-Amino-phenyl)-4-{[4-(6-morpholin-4-yl-pyridin-3-yl)-pyrimidin-2-ylamino]-methyl}-benzamide] | – | 25.5% | 67.1% |
| – | – | – | COCOC(C)(C)c1ccc(-c2ccnc(NCc3ccc(C(=O)Nc4ccccc4N)cc3)n2)cn1 [58b, N-(2-Amino-phenyl)-4-({4-[6-(1-methoxymethoxy-1-methyl-ethyl)-pyridin-3-yl]-pyrimidin-2-ylamino}-methyl)-benzamide] | 29.4% | 34.6% | – |
| – | – | – | CC(=O)Nc1ccc(NCc2ccc(C(=O)Nc3ccccc3N)cc2)cn1 [212f, 4-[(6-Acetylamino-pyridin-3-ylamino)-methyl]-N-(2-amino-phenyl)-benzamide] | 65.7% | 32.7% | – |
| – | – | – | COc1ccc(NCc2ccc(C(=O)Nc3ccccc3N)cc2)cc1F [212h, N-(2-Amino-phenyl)-4-[(3-fluoro-4-methoxy-phenylamino)-methyl]-benzamide] | – | 44% | 54.4% |
| – | – | – | CN(C)CC(=O)Nc1ccc2nc(SCc3ccc(C(=O)Nc4ccccc4N)cc3)sc2c1 [compound 158, N-(2-Amino-phenyl)-4-[6-(2-dimethylamino-acetylamino)-benzothiazol-2-ylsulfanylmethyl]-benzamide] | – | 43.2% | 42.6% |
| – | – | – | Nc1ccccc1NC(=O)c1ccc(CSc2nc3cc(F)c(F)cc3[nH]2)cc1 [compound 194, N-(2-Amino-phenyl)-4-(5,6-difluoro-1H-benzoimidazol-2-ylsulfanylmethyl)-benzamide] | 54.5% | 23.1% | – |
| – | – | – | Cn1cnc2cc(NCc3ccc(C(=O)Nc4ccccc4N)cc3)ccc21 [compound 252, N-(2-Amino-phenyl)-4-[(1-methyl-1H-benzoimidazol-5-ylamino)-methyl]-benzamide] | 70.6% | 25.9% | – |
| – | – | – | CCC(=O)Nc1sc(Cc2ccc(C(=O)Nc3ccccc3N)cc2)cc1C(N)=O [compound 296, 5-[4-(2-Amino-phenylcarbamoyl)-benzyl]-2-propionylamino thiophene-3-carboxylic acid amide] | 63.9% | 53.4% | – |
| ≤ 0.1 µM | 0.1 to 1 µM | ≤ 10 µM | Nc1ccccc1NC(=O)c1ccc(N2CC[C@H](Nc3cccnc3)C2)cc1 [compound 361, (S)—N-(2-Aminophenyl)-4-(3-(pyridin-3-ylamino)pyrrolidin-1-yl)benzamide] | – | – | – |
| 0.1 to 1 µM | 1 to 5 µM | ≤ 20 µM | Nc1ccccc1NC(=O)c1ccc(N2CC[C@@H](Nc3cccnc3)C2)cc1 [compound 366, (R)—N-(2-Aminophenyl)-4-(3-(pyridin-3-ylamino)pyrrolidin-1-yl)benzamide] | – | – | – |
| 0.1 to 1 µM | 0.1 to 1 µM | ≤ 10 µM | Nc1ccccc1NC(=O)c1ccc(N2CC[C@H](Oc3cccnc3)C2)cc1 [compound 367, (S)—N-(2-Aminophenyl)-4-(3-(pyridin-3-yloxy)pyrrolidin-1-yl)benzamide] | – | – | – |
| 0.1 to 1 µM | 0.1 to 1 µM | ≤ 1 µM | Nc1ccccc1NC(=O)c1ccc(N2CC[C@H](Nc3ccccc3)C2)cc1 [compound 369, (S)—N-(2-Aminophenyl)-4-(3-(phenylamino)pyrrolidin-1-yl)benzamide] | – | – | – |
| ≤ 0.1 µM | 0.1 to 1 µM | ≤ 1 µM | COc1cc(O[C@H]2CCN(c3ccc(C(=O)Nc4ccccc4N)cc3)C2)cc(OC)c1OC [compound 374, (S)—N-(2-Aminophenyl)-4-(3-(3,4,5-trimethoxyphenoxy)pyrrolidin-1-yl)benzamide] | – | – | – |
| ≤ 0.1 µM | > 5 µM | ≤ 1 µM | Nc1ccccc1NC(=O)c1ccc(N2CC[C@H](Oc3ccc4c(c3)OCO4)C2)cc1 [compound 375, (S)—N-(2-Aminophenyl)-4-(3-(benzo[d][1,3]dioxol-5-yloxy)pyrrolidin-1-yl)benzamide] | – | – | – |
| 0.1 to 1 µM | 0.1 to 1 µM | ≤ 10 µM | Nc1ccccc1NC(=O)c1ccc(N2CC[C@H](Sc3ccccn3)C2)cc1 [compound 378, (S)—N-(2-Aminophenyl)-4-(3-(pyridin-2-ylthio)pyrrolidin-1-yl)benzamide] | – | – | – |
